Laboratory results reported in patent US6544561B2 (The Lachlan Family Pty Ltd., priority 1997, dated 2003).

Legend:
[1] = tested on: outbred (Swiss) female mice; conditions: drinking water with Mg2+ 120 mg per liter from weaning, fed on alternate days
Protocol: A short-lived mammalian species was chosen. […] Two hundred outbred (Swiss) female mice were divided randomly at weaning into two groups of 100 mice and were maintained under identical management and environmental conditions.
The second group of mice was supplied with drinking water that contained magnesium sulphate (Epsom salts) 1 gram per liter with a pH value between pH 6.5 and pH 7.0. This drinking water contained approximately Mg^2+ 120mg per liter. Bicarbonate anions were absent.
Both groups of mice were fed commercial laboratory food that contained 1 gram of magnesium per kilogram of food. Both groups of mice were fed on alternate days with no food available on the other days. Group-specific drinking water (as described above) was available at all times.

[2] = tested on: post menopausal women with osteoarthritis in the joints of their hands; conditions: in vivo
Text: For an experimental trial, a group of post menopausal women were chosen who had clinical signs of osteoarthritis in the joints of their hands. The osteoarthritic joints included the distal and proximal interphalangeal joints of the fingers and the carpometacarpal joint of the thumbs. In all cases, loss of joint function was moderate to severe.
In all cases, the women suffered pain, swelling of the fingers and loss of joint movement. […] Women with affected thumbs had considerable loss of function and considerable pain. […] The women consumed between 2 to 3 liters of bicarbonate solution per day. […] Consumption was commenced at half a liter per day and increased by increments over a period of one month to 2 to 3 liters per day. Consumption occurred on an empty stomach to avoid the loss of bicarbonate by stomach acid. Consumption occurred in small amounts (300 mL) at set times each day to avoid rapid increases in bicarbonate concentrations of body fluids.

[3] = with lowered body weight; text refers to the trial of Example 5
Protocol: A trial involving people consuming bicarbonate anions in water was conducted. These people were middle aged and overweight and complained of tiredness and lethargy. No control group was maintained for the duration of the trial (people in an initial control group were unable to consume the volumes of soft water required). […] They were requested to decrease their food (calorie) intake considerably and to avoid dietary fats.
Bicarbonate concentration was established at a maximum of one gram per liter.
Each participant in the trial was advised to consume the bicarbonate solution ‘on an empty stomach’. […] Advice was given also to consume the solution in small amounts at set times each day. Consumption in this manner avoided a rapid increase in the bicarbonate concentrations of body fluids.

Compound | Fifty Percent Survival [1] [days] | Maximum Life Span [1] [days] | Pain and swelling associated with osteoarthritis [2] | Blood pressure [3]
magnesium bicarbonate | 790 | 1152 | alleviated the pain and swelling associated with osteoarthritis | reduction in high blood pressure to a normal value
O=S(=O)([O-])[O-].[Mg+2] [magnesium sulphate, reference compound] | 736 | 1040 | – | –
